Earlier results as cited in US6399819B1, “Process for purifying creatine” (BASF Aktiengesellschaft, priority 1999, dated 2002).

Conditions: recrystallization from water

In the case of `CN(CC(=O)O)C(=N)N` [creatine], the “temperature above which decomposition of creatine to creatinine and N-methylhydantoin increases to a level no longer acceptable” value is listed as “about 80 °C”.
